One may read the half-life as how long it takes for the measured level to halve. Low values mean fast loss, high ones slow loss.

The record followed here is patent publication US20090286738A1, “Gene Regulation” (ST. GEORGE'S ENTERPRISES LIMITED, priority 2005, published 2009).

Data set [1] deals with B16 murine melanoma cells. In words: Living and dead B16 cells after 3 hours (FIGS. 2A, 9). Type of data set: cell-based. Particulars: 3 hours. As for the experimental part: In FIG. 2A the peptides as indicated were applied to the cells at a concentration of 60 μM. The number of living and dead cells were assessed after 3 hours. Black bars=number of cells dead. White bars=number of cells alive.
(§1) The peptides as indicated were applied to the cells at a concentration of 60 μM (FIG. 6A) or 6 μM (FIG. 6B). In both experiments the HXArg9, CX1Arg9 and CX2Arg9 peptides used were the (2D) variant peptides in which the N- and C-terminal amino acids are in the D conformation and all remaining amino acids are in the L conformation. The number of living and dead cells were assessed after 3 hours. Black bars=% or number of cells dead. White bars=% or number of cells alive.
The HXArg9 peptide used was the (2D) variant peptide in which the N- and C-terminal amino acids are in the D conformation and all remaining amino acids are in the L conformation. HXArg9 was applied to the cells at a variety of concentrations (μM), and the number of dead and living cells was assessed after 3 hours. Black bars=% cells dead. White bars=% cells alive.
(§2) Cell lines were seeded at 4×10^4 cells/ml in liquid culture system made of RPMI-1640 medium (Life Technologies, UK) supplemented with Foetal Calf Serum (10% Sigma Aldrich) and penicillin/streptomycin (1%, Sigma) and at least in duplicate. When required the test peptide was added to the medium. Cell lines were cultured for up to 7 days at 37° C., 5% CO2 in humidified atmosphere. Cultured cells were then assessed for cell viability/enumeration using trypan blue exclusion (Sigma Aldrich).

Data set [2] has as its system malignant cell lines (B16 mouse melanoma, LNCAP human prostate cancer, K562). Briefly: Activity of peptides on different malignant cell lines, living and dead cells after 3 hours (FIGS. 6 to 8). Type of data set: cell-based. As to conditions: further experiments. As for the experimental part:
as §1
The peptides as indicated were applied to the cells at a concentration of 60 μM (FIG. 7A) or 6 μM (FIG. 7B). In both experiments the HXArg9, CX1Arg9 and CX2Arg9 peptides used were the (2D) variant peptides in which the N- and C-terminal amino acids are in the D conformation and all remaining amino acids are in the L conformation. The number of living and dead cells were assessed after 3 hours. Black bars=% or number of cells dead. White bars=% or number of cells alive.
as §1, with “μM. HXArg9(2D) is” for “μM (FIG. 6A) or 6 μM (FIG. 6B). In both experiments”, “variant form of HXArg9 in which the N-terminal and C-terminal amino acids are in the D conformation and the remaining amino acids are in the L conformation. HXArg9 consists of only L-conformation amino acids. The” for “HXArg9,”, “bars=%” for “bars=% or number of”
as §2
The activity of the peptides described above was tested on a number of different malignant cell lines using a similar assay to that described previously.

The nature of data set [3]: Stability of peptides in human plasma at 37° C., SDS-PAGE. Type of data set: in vitro ADME. As for the experimental part: Peptides were incubated in human serum for the times shown and then visualised on a Coomassie brilliant blue stained gel. The arrow heads indicate the position of intact peptide. Standard=peptide only in this lane as a marker.
The stability of HXArg9(2D) and CX2Arg9(2D) was assessed by incubation each with human plasma at 37° C. and the amount of peptide remaining after different amounts of time was assessed by SDS-PAGE. Each peptide was added to freshly prepared human plasma to a final concentration of 1 mM in a total volume of 40 μl. Samples were incubated at 37° C. and reactions were stopped by adding 60 μl of water and 0.9 ml of protein gel loading buffer (BioRad, USA) containing 1% 2-mercaptoethanol, and heating to 95° C. for four minutes. 2 μl of each sample was run on a 22% acrylamide gel. […] This compared with a half life of approximately 40 minutes for the L isomer form HXArg9.

The subject of another data set is HOX/PBX/DNA complexes. Briefly: Band shift assay, protein extracted from treated B16 tumours. Particulars: tumours treated for two hours. Type of data set: in vivo, mice. As for the experimental part:
Double stranded oligodexoynucleotide probes were incubated in protein extracted from B16 tumours. One of these probes (HP) contained a HOX/PBX consensus binding region (bold)—5′ CTGTTTGATT TATTTGTTTA 3′. A second, control probe (CP) contained an altered HOX/PBX binding site that is not predicted to bind HOX and PBX proteins—5′ CTGTTACTGA CGATTGTTTA 3′. […] The mobility of CP was unchanged by incubating with the protein extract (lane 11). […] U, untreated; C, CX2Arg9(2D) treated; H, HXArg9(2D) treated; +HP, the HP probe was added to the lysates with an excess of unlabelled probe as shown (0, 5 fold, or 25 fold); +CP, control probe added to lysates; ‘+anti PBX’, anti-PBX antibody added to lysate; ‘+block pep’, a blocking peptide was added to the lysate that blocks anti-PBX antibody from binding to PBX.
(§3) In order to assess whether the hexapeptide could block HOX/PBX binding in vivo, tumours were treated with HXArg9 for two hours and then used to produce nuclear lysates.

The test system of data set [4] is B16 tumours. In words: Treatment of murine B16 tumours in vivo. Also on record: species or system mice. As to conditions: 15 mg/kg intraperitoneal. As to the method: FIG. 12. Treatment of murine B16 tumours in vivo. Mice were injected with one million B16 cells subcutaneously and treatment was started when tumours first became palpatable (day 1=first day after treatment). Mice were injected once daily for four days with an intraperitoneal dose of 15 mg/kg. (a) Changes in tumour size over treatment period (n=4). (b) Histological sections of tumours from HXArg9(2D) (HXR9) and CX2Arg9(2D) (CXR9) treated mice at the end of treatment.
Mice were maintained at the Biological Resource Facility at St. George's. Their care was in accordance to Home Office regulations. B16 cells in exponential growth phase were injected subcutaneously at a dose of 1×10^6 cells into C57black/6 mice. Tumour growth was monitored daily. Once tumours were established, mice received 15 mg/kg HXArg9(2D) intraperitoneal. Mice were euthanised and tumours excised and fixed for histopathological analysis.
(§4) Control groups received control peptide and PBS accordingly. For the A549 tumour model, […] were used to establish flank models. This study was conducted by Perry Scientific Inc., USA.
The B16 F10 murine tumour is a well established in vivo model of melanoma, and is also one of the most aggressive murine tumours (Fidler, I. J. & Nicolson, G. L. Isr. J. Med. Sci. 14, 38-50 (1978), Shrayer, D. et al. Cancer Immunol Immunother. 40, 277-282 (1995)). […]

The next data set has as its system A549 tumours. In words: Treatment of A549 tumours in vivo. Also on record: species or system mice. As to conditions: twice weekly, 100 mg/kg followed by 10 mg/kg. As for the experimental part: FIG. 13. Treatment of A549 tumours in vivo. Nude mice were injected with one million A549 cells subcutaneously and treatment was started when tumours reached an average volume of 100 mm^3. […] (a) intralesional (IT) administration, (b) intraperitoneal (IP) administration.
as §4
We also examined whether HXArg9 could block the growth of a non-melanoma tumour in vivo. In order to do this, we established flank tumours using the non-small cell lung cancer derived cell line A549 (Lieber, M., et al. Int. J. Cancer 17, 62-70 (1976)) in nude mice.

The test system of data set [5] is B16 tumours. Briefly: QPCR of RNA extracted from treated B16 tumours. Type of data set: in vivo, mice. Particulars: IP 15 mg/Kg, two hours after treatment. As for the experimental part: FIG. 10. […] RNA extracted from (a) B16 cells cultured in vitro and treated with 60 μM peptide for two hours, and (b) B16 tumours treated with peptide injected IP at 15 mg/Kg body weight; tumours were excised and RNA was extracted two hours after treatment. Results are expressed as a proportion of the level of β-actin transcripts. For (a), the results are an average of 2 separate experiments, for (b), the results are an average for tumours taken from three individual mice. U, untreated; C, CX2Arg9(2D) treated; H, HXArg9(2D) treated. Error bars represent the standard error of the mean.
as §3

With `CSCC[C@H](NC(=O)[C@H](Cc1c[nH]c2ccccc12)NC(=O)[C@@H]1CCCN1C(=O)[C@H](Cc1ccc(O)cc1)NC(=O)[C@@H](N)Cc1c[nH]c2ccccc12)C(=O)N[C@@H](CCCCN)C(=O)N[C@@H](CCCCN)C(=O)N[C@@H](Cc1c[nH]cn1)C(=O)N[C@@H](Cc1c[nH]cn1)C(=O)N[C@@H](CCCNC(=N)N)C(=O)N[C@@H](CCCNC(=N)N)C(=O)N[C@@H](CCCNC(=N)N)C(=O)N[C@@H](CCCNC(=N)N)C(=O)N[C@@H](CCCNC(=N)N)C(=O)N[C@@H](CCCNC(=N)N)C(=O)N[C@@H](CCCNC(=N)N)C(=O)N[C@@H](CCCNC(=N)N)C(=O)N[C@@H](CCCNC(=N)N)C(=O)O` [HXArg9, WYPWMKKHHRRRRRRRRR], the ablation of cells result in data set [1] (4.625 μM) is “significant ablation”; in data set [1] (37 μM) it was “ablation of substantially all”; in data set [1] (74 μM) it was “ablation of substantially all”. In data set [2], the “effectiveness in preventing cellular proliferation compared with HXP4” value is on record as “as effective as HXP4”. In data set [3], the half-life is approximately 40 min. The “binding of tumour protein extract to HOX/PBX consensus probe” value in the data set with HOX/PBX/DNA complexes is listed as “could not bind a DNA probe containing a HOX/PBX consensus binding site”. Moreover, the “histological analysis of excised tumours” value in the data set with B16 tumours [4] was “inner cell death”. Moreover, the “tumour size at end point” value with B16 tumours [4] (once daily for four days) is “significant degree of shrinkage”. The tumour growth entry with A549 tumours is reported as “significant reduction in tumour growth”. Besides, the “transcripts of Fos, Jun, Dusp1 and Atf3 (QPCR)” value with B16 tumours [5] is recorded as “upregulated”.
